Assay results taken from ChEMBL document CHEMBL5614434, “A Lysosome-Targeting hNEU1 Inhibitor Treats Myocardial Infarction: A Potential Therapeutic Breakthrough” (J Med Chem, 2024).
Activity calls are given as the source filed them. The calls are words filed in the database; no cut-off is given here.

Legend:
H9c2 [1] = assay: Cytotoxicity against rat H9c2 cells assessed as cell viability at 0.001 to 50 uM under normoxia condition by CCK-8 method; assay type: toxicity, cell-based; settings: h9c2, 50 µM, dose 0.001-50 µM
Mus musculus [2] = assay: Cardioprotective activity against isoproterenol-induced myocardial injury in C57/6J mouse model assessed as decrease in CK-MB level in serum at 15 mg/kg, ip pretreated with isoproterenol for 3 days followed by compound addition and measured after 3 days by automatic biochemical analysis; assay type: functional, organism-based; settings: time 3.0 day
[3] = Passive permeability in MDCK cells; assay type: ADME, cell-based, Canis lupus familiaris; settings: dog, read-out: permeability
H9c2 [4] = assay: Induction of apoptosis in isoproterenol-induced rat H9c2 cells assessed as early apoptotic cells at 0.1 micromol/L by annexin V-FITC and PI staining based flow cytometry analysis (reference value: 10.37%); assay type: toxicity, cell-based; settings: h9c2, 0.1 µM, dose 0.1 µmol/L
Mus musculus [5] = assay: Cardioprotective activity against isoproterenol-induced myocardial injury in C57/6J mouse model assessed as suppression of mTORC1 overexpression at 15 mg/kg, ip pretreated with isoproterenol for 3 days followed by compound addition and measured after 3 days by immunohistochemistry analysis; assay type: functional, organism-based; settings: time 3.0 day
Mus musculus [6] = assay: Cardioprotective activity against isoproterenol-induced myocardial injury in C57/6J mouse model assessed as effect on cTNI level in serum at 15 mg/kg, ip pretreated with isoproterenol for 3 days followed by compound addition and measured after 3 days by automatic biochemical analysis; assay type: functional, organism-based; settings: time 3.0 day
H9c2 [7] = assay: Induction of autophagy in isoproterenol-induced rat H9c2 cells assessed as downregulation of P62 expression by Western blot analysis; assay type: functional, cell-based
Mus musculus [8] = assay: Cardioprotective activity against isoproterenol-induced myocardial injury in C57/6J mouse model assessed as reduction in CK value in serum at 15 mg/kg, ip pretreated with isoproterenol for 3 days followed by compound addition and measured after 3 days by automatic biochemical analysis; assay type: functional, organism-based; settings: time 3.0 day
Mus musculus [9] = assay: Cardioprotective activity against isoproterenol-induced myocardial injury in C57/6J mouse model assessed as reduction in cardiac swelling size at 15 mg/kg, ip pretreated with isoproterenol for 3 days followed by compound addition and measured after 3 days (reference value: 5.15 millimeter); assay type: functional; settings: time 3 day
[10] = Permeability of compound in MDCK cells; assay type: ADME, cell-based, Canis lupus familiaris; settings: dog, read-out: permeability
H9c2 [11] = assay: Induction of autophagy in isoproterenol-induced rat H9c2 cells assessed as downregulation of PARP1 expression by Western blot analysis; assay type: functional, cell-based
H9c2 [12] = assay: Induction of ATP production in isoproterenol-induced rat H9c2 cells at 0.1 micromol/L by fluorescence based analysis; assay type: functional; settings: dose 0.1 µmol/L
H9c2 [13] = assay: Induction of autophagy in isoproterenol-induced rat H9c2 cells assessed as increase in LC3-I to LC3-II conversion by confocal microscopy based analysis; assay type: functional, cell-based
H9c2 [14] = assay: Induction of apoptosis in isoproterenol-induced rat H9c2 cells assessed as late apoptotic cells at 0.1 micromol/L by annexin V-FITC and PI staining based flow cytometry analysis (reference value: 11.49%); assay type: toxicity, cell-based; settings: h9c2, 0.1 µM, dose 0.1 µmol/L
[15] = Toxicity in isoproterenol-induced male C57/6J mouse model assessed as recovery of growth rate at 15 mg/kg, ip pretreated with isoproterenol for 3 days followed by compound addition and measured after 3 days; assay type: organism-based; settings: in vivo, 72 h, time 3 day
Mus musculus [16] = assay: Cardioprotective activity against isoproterenol-induced myocardial injury in C57/6J mouse model assessed as decrease in heart weight ratio at 15 mg/kg, ip pretreated with isoproterenol for 3 days followed by compound addition and measured after 3 days (reference value: 0.56 %); assay type: functional; set-up: scale not given: the % may be the effect or the level left; settings: time 3 day
H9c2 [17] = assay: Inhibition of ROS production in isoproterenol-induced rat H9c2 cells assessed as reduction in DCF value at 0.1 uM by DCFH-DA staining based flow cytometry analysis (reference value: 371.9); assay type: functional

Row | Compound | Activity (H9c2 [1]) | Activity (Mus musculus [2]) | Papp [3] [×10⁻⁶ cm/s] | Activity (H9c2 [4]) [%] | Activity (Mus musculus [5]) | Activity (Mus musculus [6]) | Activity (H9c2 [7]) | Activity (Mus musculus [8]) | Activity (Mus musculus [9]) [mm] | Papp [10] [×10⁻⁶ cm/s] | Activity (H9c2 [11]) | Activity (H9c2 [12]) [nmol/mg] | Activity (H9c2 [13]) | Activity (H9c2 [14]) [%] | Activity [15] | Activity (Mus musculus [16]) [%] | Activity (H9c2 [17])
1 | CCC(CC)O[C@@H]1C=C(C(=O)OCCN(C)C)C[C@H](N)[C@H]1NC(C)=O | Non-Toxic | – | – | – | – | – | – | – | – | – | – | – | – | – | – | – | –
2 | CCOC(=O)C1=C[C@@H](OC(CC)CC)[C@H](NC(C)=O)[C@@H](N)C1 [OSELTAMIVIR] | Non-Toxic | Active | > 20 | 2.78 | Active | Active | Active | Active | 4.65 | 58 | Active | 38.3 | inactive | 8.91 | Non-Toxic | 0.5 | 309.1
3 | CCC(CC)O[C@@H]1C=C(C(=O)OCCc2ccncc2)C[C@H](N)[C@H]1NC(C)=O | Non-Toxic | – | – | – | – | – | – | – | – | – | – | – | – | – | – | – | –
